Experimental data as given in patent US4148795A, “Dithiocarbamate ester bactericides and fungicides” (American Cyanamid Company, priority 1976, dated 1979).
Values joined by “and” are separate entries in the source; they are usually repeats but may differ in a detail not shown here. Equal entries are not always repeated. Where two headings read alike, the source gives them in different places.

Legend:
[1] = test system: Phytophthora infestans; format: in vivo; set-up: scale not given here; conditions: Tomato Late Blight, five days
[2] = test system: Monilinia fructicola; test: Spore germination inhibition; format: cell-based; conditions: for inhibition at 1 ppm / inhibition at 10 ppm: 24 hours; for inhibition at 100 ppm: 24 h, read-out: % Inhibition of Spore Germination
Excerpt: (§1) The test procedure involves the preparation of a 100, 10 or 1 ppm. suspension of test compound in water. The solutions are placed in one dram "opticlear" vials and separately inoculated with one drop of a spore suspension prepared from seven-day cultures of Aspergillus niger and 14-day old cultures of Monilinia fructicola and Stemphylium sarcinaeforme,all grown on potato-dextrose agar. The vials containing the separately inoculated solutions of test compounds are then capped and placed on a rotating tumbler for 24 hours to assure contact of the organism with the test compound. After 24 hours, the vials are removed and examined for inhibition of […].

[3] = test system: Stemphylium sarcinaeforme; test: Spore germination inhibition; format: cell-based; conditions: Stemphylium sarciniforme; for inhibition at 100 ppm: 24 h, read-out: % Inhibition of Spore Germination; for inhibition at 1 ppm / inhibition at 10 ppm: 24 hours
Excerpt: as §1

[4] = test system: Aspergillus niger; test: Spore germination inhibition; format: cell-based; conditions: 24 hours
Excerpt: as §1

[5] = test system: Piricularia oryzae; format: in vivo; set-up: scale not given here; conditions: Rice Blast, five days
[6] = test system: Venturia inaequalis; conditions: in vivo; further: key: 5: clean, no disease; 4: trace of disease; 3: slight disease; 2: moderate disease; 1: severe disease; 0: like controls
[7] = test system: Pseudomonas solaracaerum; format: cell-based; conditions: 100 ppm, 72 hours at 23° C
[8] = test system: Stemphylium sarcinaeforme; test: Agar dilution plate; format: cell-based; conditions: Ss; 100 ppm, 72 hours at 23° C
Protocol: (§2) Test compounds were incorporated in a Sabouraud's dextrose agar in an amount sufficient to provide the active ingredient in a concentration of about 100 ppm. A twenty-ml. sample of the agar mixture is placed in a petri dish and permitted to solidify. An agar sample is inoculated with the test organism set forth below and then covered and incubated for a period of about 72 hours at 23° C. After incubation, growth observations are made. The test results are recorded and the test is repeated twice for the purpose of comparison.
(§3) The data obtained with a variety of test organisms is shown in the table below, and ratings are shown as 0 or 5. O indicates no control, 5 indicates 100% effectiveness of the test compound against the specified organism.
Ss= Stemphylium sarcinaeforme

[9] = test system: Verticillium albo-atrum; test: Agar dilution plate; format: cell-based; conditions: Va; 100 ppm, 72 hours at 23° C
Protocol: as §2, §3
Va= Verticillium albo-atrum

[10] = test system: Monilinia fructicola; test: Agar dilution plate; format: cell-based; conditions: Mf; 100 ppm, 72 hours at 23° C
Protocol: as §2, §3

[11] = test system: Pythium de Baryanum; test: Agar dilution plate; format: cell-based; conditions: Pd; 100 ppm, 72 hours at 23° C
Protocol: as §2, §3

[12] = test system: Rhizoctonia solani; test: Agar dilution plate; format: cell-based; conditions: Rs; 100 ppm, 72 hours at 23° C
Protocol: as §2, §3

[13] = test system: Fusarium lycopersici; test: Agar dilution plate; format: cell-based; conditions: Fl; 100 ppm, 72 hours at 23° C
Protocol: as §2, §3

[14] = test system: Aspergillus niger; test: Agar dilution plate; format: cell-based; conditions: An; 100 ppm, 72 hours at 23° C
Protocol: as §2, §3

[15] = test system: Collectotrichum lagenarium; test: Agar dilution plate; format: cell-based; conditions: Cl; 100 ppm, 72 hours at 23° C
Protocol: as §2, §3
Cl= Collectotrichum lagenarium

Compound	disease control index ([1]; 150 ppm)	disease control index ([1]; 300 ppm)	disease control index ([1]; 600 ppm)	disease control index ([1]; 1200 ppm)	inhibition at 1 ppm [2]	inhibition at 10 ppm [2]	disease control index ([5]; 300 ppm)	disease control index [6]	Agar Dilution Plate rating [7]	disease control index ([5]; at 75 ppm)	disease control index ([5]; at 500 ppm)	disease control index ([1]; at 500 ppm)	Agar Dilution Plate rating [8]	Agar Dilution Plate rating [9]	Agar Dilution Plate rating [10]	Agar Dilution Plate rating [11]	Agar Dilution Plate rating [12]	Agar Dilution Plate rating [13]	Agar Dilution Plate rating [14]	Agar Dilution Plate rating [15]	other results
CN(C)C(=S)SC(C[N+](=O)[O-])c1ccc(C(C[N+](=O)[O-])SC(=S)N(C)C)cc1 (stereo not drawn) [Example 20, α,α'-Bis(nitromethyl)-p-phenylenedimethylene Dimethyldithiocarbamate]	3	3	4	5	–	–	–	–	–	–	–	–	–	–	–	–	–	–	–	–	–
COc1ccc(C(C[N+](=O)[O-])SC(=S)N(C)C)cc1 (stereo not drawn) [Example 29, p-Methoxy-α-(nitromethyl)benzyl Dimethyldithiocarbamate]	5	5	5	5	0%	100%	5	5	–	–	–	–	–	–	–	–	–	–	–	–	inhibition at 100 ppm [2]: 100%; inhibition at 100 ppm [3]: 100%; inhibition at 1 ppm [3]: 0%; inhibition at 10 ppm [3]: 100%; inhibition at 1 ppm [4]: 0%; inhibition at 10 ppm [4]: 0%; inhibition at 100 ppm [4]: 100%; disease control index ([5]; 150 ppm): 4; disease control index ([5]; 600 ppm): 5; disease control index ([5]; 1200 ppm): 5
CN(C)C(=S)SC(C[N+](=O)[O-])c1ccc(Cl)s1 (stereo not drawn) [Example 34, 5-Chloro-α-(nitromethyl)-2-thenyl Dimethyldithiocarbamate]	–	–	–	–	0%	100%	–	–	0	1	3	3	0	0	0	0	5 (100% effectiveness of the test compound against the specified organism)	0	0	5 (100% effectiveness of the test compound against the specified organism)	inhibition at 100 ppm [2]: 100%; inhibition at 100 ppm [3]: 100%; inhibition at 1 ppm [3]: 0%; inhibition at 10 ppm [3]: 100%; inhibition at 1 ppm [4]: 0%; inhibition at 10 ppm [4]: 100%; inhibition at 100 ppm [4]: 100%
CN(C)CC1(CSC(=S)N(C)C)SC(=S)NC1=O (stereo not shown) [Example 12, Dimethyldithiocarbamic Acid S-Ester with 5-(Dimethylaminomethy)-5-(mercaptomethyl)rhodanine]	5	5	–	–	–	–	5	5	–	–	–	–	–	–	–	–	–	–	–	–	–
CC(=O)Oc1ccc(C(C[N+](=O)[O-])SC(=S)N(C)C)cc1 (stereo not drawn) [Example 24, 4-Acetoxy-α-(nitromethyl)benzyl Dimethyldithiocarbamate]	–	–	–	–	0%	100%	–	5	0	3	4	5	5 (100% effectiveness of the test compound against the specified organism)	5 (100% effectiveness of the test compound against the specified organism)	5 (100% effectiveness of the test compound against the specified organism)	0	0	0	0	5 (100% effectiveness of the test compound against the specified organism)	inhibition at 100 ppm [2]: 100%; inhibition at 100 ppm [3]: 0%; inhibition at 1 ppm [4]: 0%; inhibition at 10 ppm [4]: 100%; inhibition at 100 ppm [4]: 100%; disease control index ([1]; at 100 ppm): 3
CN(C)C(=S)SC(C[N+](=O)[O-])c1ccco1 (stereo not drawn) [Example 32, α-(Nitromethyl)furfuryl Dimethyldithiocarbamate]	4	4	5	5	–	–	0	5 and 0	–	–	–	–	–	–	–	–	–	–	–	–	disease control index ([5]; 150 ppm): 0; disease control index ([5]; 600 ppm): 5; disease control index ([5]; 1200 ppm): 5
CN(C)C(=S)SC(C[N+](=O)[O-])c1cccc2ccccc12 (stereo not shown) [Example 31, 1-Naphthyl-2-nitroethyl Dimethyldithiocarbamate]	–	–	–	–	0%	0%	–	4	0	4	5	5	5 (100% effectiveness of the test compound against the specified organism)	5 (100% effectiveness of the test compound against the specified organism)	5 (100% effectiveness of the test compound against the specified organism)	5 (100% effectiveness of the test compound against the specified organism)	5 (100% effectiveness of the test compound against the specified organism)	0	0	5 (100% effectiveness of the test compound against the specified organism)	inhibition at 100 ppm [2]: 100%; inhibition at 100 ppm [3]: 100%; inhibition at 1 ppm [3]: 0%; inhibition at 10 ppm [3]: 0%; inhibition at 1 ppm [4]: 0%; inhibition at 10 ppm [4]: 0%; inhibition at 100 ppm [4]: 100%; disease control index ([1]; at 100 ppm): 5
CCN(CC)C(=S)SCC(CSC(=S)N(CC)CC)[N+](=O)[O-] [Example 2, 2-Nitrotrimethylene Diethyldithiocarbamate]	4	4	5	5	–	–	4	5	0	–	–	–	0	0	0	0	0	0	0	5 (100% effectiveness of the test compound against the specified organism)	disease control index ([5]; 150 ppm): 4; disease control index ([5]; 600 ppm): 5; disease control index ([5]; 1200 ppm): 5
CCN(CC)C(=S)SC(C[N+](=O)[O-])c1ccccc1 (stereo not drawn) [Example 19, α-(Nitromethyl)benzyl Diethyldithiocarbamate]	3	3	3	3	–	–	3	5 and 0	0	–	–	–	0	0	5 (100% effectiveness of the test compound against the specified organism)	0	0	0	0	0	disease control index ([5]; 150 ppm): 3; disease control index ([5]; 600 ppm): 5; disease control index ([5]; 1200 ppm): 5
CN(C)C(=S)SC(C[N+](=O)[O-])c1cc([N+](=O)[O-])ccc1Cl (stereo not drawn) [Example 23, 2-Chloro-5-nitro-α-(nitromethyl)benzyl Dimethyldithiocarbamate]	–	–	–	–	–	–	–	4	–	3	4	5	–	–	–	–	–	–	–	–	disease control index ([1]; at 100 ppm): 5
COc1cccc(C(C[N+](=O)[O-])SC(=S)N(C)C)c1OC(C)=O (stereo not drawn) [Example 21, 2-Acetoxy-3-methoxy-α-(nitromethyl)benzyl Dimethyldithiocarbamate]	–	–	–	–	–	–	–	4	–	3	4	5	–	–	–	–	–	–	–	–	–
